From ChEMBL document CHEMBL1153338, “Semi-synthetic and synthetic 1,2,4-trioxaquines and 1,2,4-trioxolaquines: synthesis, preliminary SAR and comparison with acridine endoperoxide conjugates” (Bioorg Med Chem Lett, 2009) come the findings set out here.

For assay [1], the system named is Plasmodium falciparum. As to the kind of experiment: Antimalarial activity against chloroquine-resistant Plasmodium falciparum K1 infected type A+ human erythrocytes after 24 hrs by [G-3H]hypoxanthine uptake. The assay is classed as functional, organism-based. As to conditions: K1, 24 h.
In assay [2] the test system is Plasmodium falciparum. As to the kind of experiment: Antimalarial activity against chloroquine-sensitive Plasmodium falciparum 3D7 infected type A+ human erythrocytes after 24 hrs by [G-3H]hypoxanthine uptake. In kind it is functional, organism-based. As to conditions: 3D7, 24 h.

For orientation: IC50 means the concentration needed to halve the response being measured.

SMILES strings stand for the structures.

In the case of `O=C1CCC2(CC1)OOC1(O2)C2CC3CC(C2)CC1C3` (stereo not given), the IC50 was determined as 3.02 nM in the assay on Plasmodium falciparum [1] and 3.1 nM with Plasmodium falciparum [2].

Turning to `C[C@H]1[C@@H](CCNCCCCCNc2ccnc3cc(Cl)ccc23)O[C@@H]2O[C@@]3(C)CC[C@H]4[C@H](C)CC[C@@H]1[C@@]24OO3`, the IC50 in the assay with Plasmodium falciparum [1] was 16.2 nM; in the assay on Plasmodium falciparum [2], 24.2 nM.

Take `C[C@H]1[C@@H](CCNCCCCNc2ccnc3cc(Cl)ccc23)O[C@@H]2O[C@@]3(C)CC[C@H]4[C@H](C)CC[C@@H]1[C@@]24OO3`: the values for the IC50 with Plasmodium falciparum [1] and with Plasmodium falciparum [2] were 13.2 nM and 12.6 nM, respectively.

Regarding `COc1ccc2nc3cc(Cl)ccc3c(N3CCN(C4CCC5(CC4)OOC4(O5)C5CC6CC(C5)CC4C6)CC3)c2c1` (stereo not given), the values for the IC50 in the assay on Plasmodium falciparum [1] and in the assay with Plasmodium falciparum [2] were 6.76 nM and 12.3 nM, respectively.

Turning to `COc1ccc2nc3cc(Cl)ccc3c(NCCCNC3CCC4(CC3)OOC3(O4)C4CC5CC(C4)CC3C5)c2c1` (stereo not given), the values for the IC50 with Plasmodium falciparum [1] and with Plasmodium falciparum [2] were 11.1 nM and 12.5 nM, respectively.

`Clc1ccc2c(NCCCNC3CCC4(CC3)OOC3(O4)C4CC5CC(C4)CC3C5)ccnc2c1` (stereo not given): the IC50 with Plasmodium falciparum [1] came out at 8.32 nM; in the assay on Plasmodium falciparum [2] it was 12.3 nM.

With `Clc1ccc2c(N3CCN(C4CCC5(CC4)OOC4(O5)C5CC6CC(C5)CC4C6)CC3)ccnc2c1` (stereo not given), the IC50 in the assay with Plasmodium falciparum [1] worked out at 26.2 nM; with Plasmodium falciparum [2], 12.6 nM.

As to `COc1ccc2nc3cc(Cl)ccc3c(NCCNC3CCC4(CC3)OOC3(O4)C4CC5CC(C4)CC3C5)c2c1` (stereo not given), the IC50 in the assay on Plasmodium falciparum [1] stood at 7.2 nM; in the assay with Plasmodium falciparum [2], 9.67 nM.

With `COc1ccc2nc3cc(Cl)ccc3c(NCCNCc3ccc(CO[C@H]4O[C@@H]5O[C@@]6(C)CC[C@H]7[C@H](C)CC[C@@H]([C@H]4C)[C@@]57OO6)cc3)c2c1`, the IC50 in the assay with Plasmodium falciparum [1] amounted to 19.3 nM; with Plasmodium falciparum [2], 12.3 nM.

Turning to `C[C@H]1[C@@H](CC(=O)NCCCNc2ccnc3cc(Cl)ccc23)O[C@@H]2O[C@@]3(C)CC[C@H]4[C@H](C)CC[C@@H]1[C@@]24OO3`, the IC50 amounted to 8.22 nM with Plasmodium falciparum [1] and 9.34 nM in the assay with Plasmodium falciparum [2].

For `COc1ccc2nc3cc(Cl)ccc3c(NCCCNCc3ccc(CO[C@H]4O[C@@H]5O[C@@]6(C)CC[C@H]7[C@H](C)CC[C@@H]([C@H]4C)[C@@]57OO6)cc3)c2c1`, the figures for the IC50 with Plasmodium falciparum [1] and with Plasmodium falciparum [2] were 20.2 nM and 16.3 nM, respectively.

For the compound `COc1ccc2nc3cc(Cl)ccc3c(NCCNCC[C@H]3O[C@@H]4O[C@@]5(C)CC[C@H]6[C@H](C)CC[C@@H]([C@H]3C)[C@@]46OO5)c2c1`, the figures for the IC50 with Plasmodium falciparum [1] and with Plasmodium falciparum [2] were 14.3 nM and 12.5 nM, respectively.

`C[C@H]1[C@@H](CCNCCNc2ccnc3cc(Cl)ccc23)O[C@@H]2O[C@@]3(C)CC[C@H]4[C@H](C)CC[C@@H]1[C@@]24OO3`: the figures for the IC50 in the assay on Plasmodium falciparum [1] and with Plasmodium falciparum [2] were 8.7 nM and 5.4 nM, respectively.

Turning to `C[C@H]1[C@@H](CCNCCCNc2ccnc3cc(Cl)ccc23)O[C@@H]2O[C@@]3(C)CC[C@H]4[C@H](C)CC[C@@H]1[C@@]24OO3`, the IC50 in the assay on Plasmodium falciparum [1] came out at 12.6 nM; with Plasmodium falciparum [2], 11.5 nM.

Regarding `Clc1ccc2c(NCCNC3CCC4(CC3)OOC3(O4)C4CC5CC(C4)CC3C5)ccnc2c1` (stereo not given), the IC50 in the assay with Plasmodium falciparum [1] is 3.6 nM; in the assay with Plasmodium falciparum [2] it was 6.56 nM.
